Experimental data as given in ChEMBL document CHEMBL1151271, “Phrygiasterol, a cytotoxic cyclopropane-containing polyhydroxysteroid, and related compounds from the pacific starfish Hippasteria phrygiana” (J Nat Prod, 2005).
≈ marks a conversion by molar mass, not a printed value.

How the values were obtained:
Format in all cases: functional, cell-based
Ehrlich = assay: Induction of apoptosis in mouse EAC assessed as early apoptotic cell by Hoechst and PI staining
Splenocyte = assay: Inhibition of calcium influx in mouse splenocytes
[1] = Cytotoxicity against mouse EAC; conditions: Ehrlich

Compound `CO[C@@H]1[C@@H](O)[C@H](O[C@@H](CC[C@@H](C)[C@H]2C[C@H](O)[C@@H]3[C@]2(C)CC[C@@H]2[C@@]4(C)CC[C@H](O)C[C@@H]4[C@@H](O)C[C@]23O)C(C)C)OC[C@H]1O` [BOREALOSIDE C] has an EC50 (Ehrlich) of 70 µg/mL (≈ 117 µM) and an EC50 (Splenocyte) of 20 µg/mL (≈ 33.4 µM).

Work on `C[C@H](CC[C@@H]1C[C@H]1CO)[C@H]1[C@@H](O)[C@H](O)[C@@H]2[C@]1(C)CC[C@@H]1[C@@]3(C)CC[C@H](O)C[C@@H]3[C@@H](O)C[C@]12O` [PHRYGIASTEROL] yielded an IC50 [1] of 50 µg/mL (≈ 107 µM).

In the case of `CO[C@@H]1[C@@H](O)[C@H](O[C@@H](CC[C@@H](C)[C@H]2C[C@H](O)[C@@H]3[C@]2(C)CC[C@@H]2[C@@]4(C)CC[C@H](O)C[C@@H]4[C@@H](O)C[C@]23O)C(C)C)OC[C@H]1OS(=O)(=O)[O-].[Na+]` [PHRYGIOSIDE B], the EC50 (Ehrlich) is reported as 70 µg/mL and the EC50 (Splenocyte) is reported as 20 µg/mL.
